Results as given in the supplement of paper PMC10307832.

What was measured:
Assay in all cases: relative viability (nuclei count vs DMSO), 5 days (fraction); higher = more cells survive
PAC-1 + Linsitinib = compound: C=CCc1cccc(/C=N/NC(=O)CN2CCN(Cc3ccccc3)CC2)c1O [PAC-1] + C[C@]1(O)C[C@@H](c2nc(-c3ccc4ccc(-c5ccccc5)nc4c3)c3c(N)nccn32)C1 [Linsitinib] (partner 1 µM)
Summary of the method: (§1)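 Lung cancer cell lines were seeded in 1536-well plates and dosed by pin tool the next day, with either a single drug or a fixed anchor-drug dose combined with five library-drug doses (not always all listed) spaced in √10 steps. Five days later, one step fixed the cells and stained their nuclei (final 0.05% Triton X-100, 1% formaldehyde, 1 ug/ml Hoechst), and nuclei were counted on 4× images. Relative viability is the nuclei count in treated wells divided by the count in vehicle wells, and each value is the median of duplicate plates.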

Ibrutinib + Foretinib = compound: C=CC(=O)N1CCC[C@@H](n2nc(-c3ccc(Oc4ccccc4)cc3)c3c(N)ncnc32)C1 [Ibrutinib] + COc1cc2c(Oc3ccc(NC(=O)C4(C(=O)Nc5ccc(F)cc5)CC4)cc3F)ccnc2cc1OCCCN1CCOCC1 [Foretinib] (partner 0.25 µM)
Summary of the method: as §1

Ibrutinib + Trametinib = compound: C=CC(=O)N1CCC[C@@H](n2nc(-c3ccc(Oc4ccccc4)cc3)c3c(N)ncnc32)C1 [Ibrutinib] + CC(=O)Nc1cccc(-n2c(=O)n(C3CC3)c(=O)c3c(Nc4ccc(I)cc4F)n(C)c(=O)c(C)c32)c1 [Trametinib] (partner 0.02 µM)
Summary of the method: as §1

Ibrutinib + OSI-027 = compound: C=CC(=O)N1CCC[C@@H](n2nc(-c3ccc(Oc4ccccc4)cc3)c3c(N)ncnc32)C1 [Ibrutinib] + COc1cccc2cc(-c3nc([C@H]4CC[C@H](C(=O)O)CC4)n4ncnc(N)c34)[nH]c12 [OSI-027] (partner 0.5 µM)
Summary of the method: as §1

Row | Cell Line | relative viability (PAC-1 + Linsitinib; first compound 0.02 µM) | relative viability (PAC-1 + Linsitinib; first compound 0.06325 µM) | relative viability (PAC-1 + Linsitinib; first compound 0.2 µM) | relative viability (PAC-1 + Linsitinib; first compound 2 µM) | relative viability (Ibrutinib + Foretinib; first compound 0.005 µM) | relative viability (Ibrutinib + Foretinib; first compound 0.01581 µM) | relative viability (Ibrutinib + Foretinib; first compound 0.05 µM) | relative viability (Ibrutinib + Foretinib; first compound 0.1581 µM) | relative viability (Ibrutinib + Trametinib; first compound 0.005 µM) | relative viability (Ibrutinib + Trametinib; first compound 0.01581 µM) | relative viability (Ibrutinib + Trametinib; first compound 0.5 µM) | relative viability (Ibrutinib + OSI-027; first compound 0.005 µM) | relative viability (Ibrutinib + OSI-027; first compound 0.01581 µM) | relative viability (Ibrutinib + OSI-027; first compound 0.05 µM) | relative viability (Ibrutinib + OSI-027; first compound 0.1581 µM) | relative viability (Ibrutinib + OSI-027; first compound 0.5 µM) | relative viability (Ibrutinib + Foretinib; first compound 0.5 µM) | relative viability (Ibrutinib + Trametinib; first compound 0.05 µM) | relative viability (Ibrutinib + Trametinib; first compound 0.1581 µM)
1 | NCI-H2405 | 0.949 | 0.918 | 0.899 | 1.08 | 1.11 | 1.07 | 1.08 | 1.06 | 0.546 | 0.558 | 0.448 | 0.54 | 0.627 | 0.63 | 0.662 | 0.638 |  |  | 
2 | EBC-1 | 0.832 | 0.923 | 0.821 | 0.86 | 0.0898 | 0.102 | 0.102 | 0.0945 |  |  |  |  |  |  |  |  | 0.098 |  | 
3 | NCI-H1734 | 0.845 | 0.885 | 0.928 | 1.02 | 0.827 | 0.822 | 0.965 | 0.895 | 0.636 | 0.67 | 0.618 | 0.448 | 0.528 | 0.611 | 0.665 | 0.564 | 0.718 | 0.677 | 0.596
4 | NCI-H2087 | 1.18 | 0.931 | 0.899 | 0.875 | 1.18 | 1.21 | 1.09 |  | 0.166 | 0.196 | 0.2 | 0.407 | 0.504 | 1.08 |  | 0.542 | 1.24 | 0.199 | 
5 | NCI-H1563 | 1.15 | 1.32 | 1.28 | 1.19 | 0.985 | 0.92 | 0.935 | 0.998 |  |  |  | 0.753 | 0.71 | 0.694 | 0.825 | 0.766 | 0.88 |  | 
6 | SW 900 |  |  |  |  |  |  | 0.861 | 0.683 | 0.86 | 0.654 | 0.603 |  |  | 0.532 | 0.442 | 0.62 | 0.836 | 0.803 | 0.901
7 | A549 | 0.527 | 0.612 | 0.523 | 0.583 | 0.878 | 0.852 | 1.03 | 0.984 |  |  |  |  |  |  |  |  | 0.877 |  | 
8 | NCI-H1793 | 0.728 | 1.01 | 1.21 | 0.96 |  | 0.566 | 0.552 | 0.545 | 0.485 | 0.423 | 0.401 |  | 0.238 | 0.243 | 0.207 | 0.219 | 0.416 | 0.436 | 0.419
9 | EKVX | 1.03 | 1.02 | 0.941 | 0.917 | 0.835 | 0.762 | 0.802 | 0.617 | 0.322 | 0.343 | 0.215 | 0.644 | 0.663 | 0.763 | 0.737 | 0.511 | 0.232 | 0.392 | 
10 | NCI-H2126 | 0.696 | 0.703 | 0.692 | 0.694 |  | 1.03 | 1.24 | 1.25 | 0.5 | 0.474 | 0.466 |  | 0.59 | 0.537 | 0.537 | 0.632 | 1.02 | 0.522 | 0.559
11 | NCI-H1993 | 0.735 | 0.797 | 0.745 | 0.701 | 0.74 | 0.72 | 0.759 | 0.783 | 0.487 | 0.571 | 0.398 | 0.574 | 0.566 | 0.584 | 0.552 | 0.692 | 0.62 | 0.518 | 0.617
12 | EPLC-272H |  | 1.14 | 0.934 | 1.07 | 0.675 | 0.474 | 0.409 | 0.584 |  | 0.293 | 0.243 | 0.246 | 0.255 | 0.219 | 0.242 | 0.208 | 0.434 | 0.311 | 0.277
13 | LU99A | 0.562 | 0.514 | 0.518 | 0.489 | 0.734 | 0.703 | 0.856 | 0.945 | 0.532 | 0.575 | 0.553 | 0.245 | 0.254 | 0.323 | 0.32 | 0.288 | 0.497 | 0.528 | 0.574
14 | NCI-H1299 | 0.947 | 0.963 | 0.953 | 0.96 | 0.557 | 1.07 | 1.14 | 1.09 |  |  |  |  |  |  |  |  | 1.11 |  | 
15 | HCC-78 | 0.565 | 0.607 | 0.544 | 0.467 | 0.651 | 0.489 | 0.527 | 0.547 |  | 0.569 | 0.706 | 0.309 | 0.362 | 0.36 | 0.355 | 0.308 | 0.348 | 0.622 | 0.698
16 | HCC-15 | 0.967 | 0.876 | 0.795 | 0.935 | 0.978 | 0.929 | 1.08 | 1.08 | 0.387 | 0.367 | 0.365 | 0.654 | 0.595 | 0.689 | 0.403 | 0.757 | 1.01 | 0.419 | 0.432
17 | 201T | 1.08 | 0.991 | 1.02 | 1 | 1.02 | 1 | 0.965 | 1.03 | 0.721 | 0.708 | 0.683 | 0.758 | 0.665 | 0.882 | 0.608 | 0.762 | 1.08 | 0.695 | 0.712
